From patent publication US7632506B2, “Identification of new NY-ESO-1 epitopes recognized by CD4+ T-cells” (Ludwig Institute for Cancer Research, priority 2005, dated 2009)

How the values were obtained:
[1] = test system: CD4+ T cell clones NW2337-CD4-1 and NW2337-CD4-10; experiment: 51Cr release assay with peptide-pulsed EBV-B target cells; assay type: cell-based, human
Method: In these experiments, exemplary clones NY-ESO-1 p49-66 specific CD4^+ T cell clone NW2337-CD4-1 and NY-ESO-1 p55-72 specific CD4^+ T cell clone NW2337-CD4-10 were characterized in ^51Chromium (^51Cr) release assays using peptides overlapping the sequence of each stimulation peptide. Standard ^51Cr release assay methods were used. Briefly, autologous EBV B cell target cells were labeled with 100 μCi Na2^51CrO4 for 2 hours, and pulsed with 18 mer or 20 mer NY-ESO-1 peptides (10 μg/ml) for 1 hour. Then, 1×10^3 target cells/well were incubated in 96 V- bottom microwell plates with effector cells at different E/T ratios for 4 h at 37° C. ^51Cr release was measured in the supernatant and the specific cytotoxicity was calculated using the standard methods. Polyclonal T-cell populations were preincubated with unlabeled K562 cells as competitors at a concentration of 40:1 in order to block non-specific effector reactions.
These experiments confirmed recognition of naturally presented NY-ESO-1 epitopes by the CD4+ T-cell clones.

[2] = test system: CD4+ T cells; experiment: IFN-γ ELISPOT of CD4+ T cells presensitized with overlapping NY-ESO-1 18 mer peptides; assay type: cell-based, human; conditions: patient NW2337, limiting dilution

Substance: P55-72: synthetic 18 mer peptide, amino acids 55-72 of NY-ESO-1 (GPGGGAPRGPHGGAASGL; UniProt P78358 55-72, looked up, fragment) [Peptide P55-72]
- lysis of peptide pulsed autologous NW-2337-EBV B-cell lines by clones NW-2337-CD4-3 and -10 [1]: efficiently lysed
- recognition by clone NW2337-CD4-1 ([1]; autologous EBV B cells pulsed with peptide 10 μg/ml, clone generated with p49-66): crossreacted
- recognition by clone NW2337-CD4-10 ([1]; autologous EBV B cells pulsed with peptide 10 μg/ml, clone generated with p55-72): recognized
- CD4+ T-cell clones generated by stimulation with peptide [2]: 53
